From patent publication US20240148709A1, “METHODS OF TREATING EYE PAIN AND EYE DISORDERS” (Aisa Pharma, Inc., priority 2022, published 2024)
Values joined by “and” are separate entries in the source; they are usually repeats but may differ in a detail not shown here. Equal entries are not always repeated.

Tested on: participants with SSc-RP
Assay: Scleroderma Health Assessment Questionnaire (SHAQ), Phase 2a study Part A
Type: in vivo, human
Experimental: Part A—double-blind, placebo-controlled, parallel-group, dose selection, will assess the safety and efficacy of two doses of cilnidipine (10 mg and 20 mg), alone and in combination with tadalafil. A total of 36 participants will be randomized to one of six prespecified treatment arms. Refer to FIG. 1 for treatment arms in Part A of the study. Dosing last for 12 (±2) days in which participants will self-administer daily doses of assigned treatment in the morning. Each participant will take one capsule and one tablet to blind the active therapy being received.
The standard, validated, patient reported outcome measures tool for SSc patients, the SHAQ, will be collected at the time points specified in the study schedules (FIG. 2 and FIGS. 3A and 3B) to assess the participant's quality of life. The SHAQ includes a Raynaud's VAS that will also be reported separately.
Results: Patients in the study were administered the Scleroderma Health Assessment Questionnaire (SHAQ) at the time of study entry and during clinic visits following the treatment period. The study is a two-part, parallel arm design, prospective, double-blind, randomized study conducted in Australia (Flinders Medical Center). 27 patients were randomized into the first phase of the study, following which a DSMB meeting was held, which reviewed data on the primary study endpoint and key Raynaud's secondary endpoints. Data on the SHAQ was not available for the DSMB to review. The mITT population, in which any data was available post treatment was 24 patients was the analysis population for this first part of the study. The second part (i.e., part B) of the study will randomize 36 patients in a double blind, randomized, prospective, placebo controlled, crossover study. In the first part (i.e., Part A) of the study for which data is presented, patients were randomized into 6 groups, cilnidipine at two doses (10 and 20 mg) alone and in combination with tadalafil 5 mg, tadalafil 5 mg alone, and placebo. […] The DSMB recommended that the study proceed into its double blind prospective cross overpowered second phase and compare cilnidipine 20 mg alone to placebo.

[1] = cilnidipine 20 mg arms (alone or + tadalafil 5 mg)

COCCOC(=O)C1=C(C)NC(C)=C(C(=O)OC/C=C/c2ccccc2)C1c1cccc([N+](=O)[O-])c1 (stereo not shown) [Cilnidipine, cilnidipine]
SHAQ Visual Analog Scale-Breathing Problems, Change from Baseline, Q3 [1]: 0.300
SHAQ Visual Analog Scale-Breathing Problems, In Clinic Visit (Day 12), Max [1]: 0.50
SHAQ Visual Analog Scale-Breathing Problems, In Clinic Visit (Day 12), Mean (SD) [1]: 0.300 (0.2646)
SHAQ Visual Analog Scale-Breathing Problems, In Clinic Visit (Day 12), Median [1]: 0.400
SHAQ Visual Analog Scale-Breathing Problems, In Clinic Visit (Day 12), Min [1]: 0.00
SHAQ Visual Analog Scale-Breathing Problems, In Clinic Visit (Day 12), Q1 [1]: 0.000
SHAQ Visual Analog Scale-Breathing Problems, In Clinic Visit (Day 12), Q3 [1]: 0.500
SHAQ Visual Analog Scale-Breathing Problems, Percent Change from Baseline, Max [1]: 150.0%
SHAQ Visual Analog Scale-Breathing Problems, Percent Change from Baseline, Mean (SD) [1]: −5.56 (135.742) %
SHAQ Visual Analog Scale-Breathing Problems, Percent Change from Baseline, Median [1]: −66.67%
SHAQ Visual Analog Scale-Breathing Problems, Percent Change from Baseline, Min [1]: −100.0%
SHAQ Visual Analog Scale-Breathing Problems, Percent Change from Baseline, Q1 [1]: −100.00%
SHAQ Visual Analog Scale-Breathing Problems, Percent Change from Baseline, Q3 [1]: 150.00%
SHAQ Visual Analog Scale-Intestinal Problems, Change from Baseline, Max [1]: 0.60
SHAQ Visual Analog Scale-Intestinal Problems, Change from Baseline, Mean (SD) [1]: 0.300 (0.3000)
SHAQ Visual Analog Scale-Intestinal Problems, Change from Baseline, Median [1]: 0.300
SHAQ Visual Analog Scale-Intestinal Problems, Change from Baseline, Min [1]: 0.00
SHAQ Visual Analog Scale-Intestinal Problems, Change from Baseline, Q1 [1]: 0.000
SHAQ Visual Analog Scale-Intestinal Problems, Change from Baseline, Q3 [1]: 0.600
SHAQ Visual Analog Scale-Intestinal Problems, In Clinic Visit (Day 12), Max [1]: 2.10
SHAQ Visual Analog Scale-Intestinal Problems, In Clinic Visit (Day 12), Mean (SD) [1]: 1.133 (1.0599)
SHAQ Visual Analog Scale-Intestinal Problems, In Clinic Visit (Day 12), Median [1]: 1.300
SHAQ Visual Analog Scale-Intestinal Problems, In Clinic Visit (Day 12), Min [1]: 0.00
SHAQ Visual Analog Scale-Intestinal Problems, In Clinic Visit (Day 12), Q1 [1]: 0.000
SHAQ Visual Analog Scale-Intestinal Problems, In Clinic Visit (Day 12), Q3 [1]: 2.100
SHAQ Visual Analog Scale-Intestinal Problems, Percent Change from Baseline, Max [1]: 40.0%
SHAQ Visual Analog Scale-Intestinal Problems, Percent Change from Baseline, Mean (SD) [1]: 35.00 (7.071) %
SHAQ Visual Analog Scale-Intestinal Problems, Percent Change from Baseline, Median [1]: 35.00%
SHAQ Visual Analog Scale-Intestinal Problems, Percent Change from Baseline, Min [1]: 30.0%
SHAQ Visual Analog Scale-Intestinal Problems, Percent Change from Baseline, Q1 [1]: 30.00%
SHAQ Visual Analog Scale-Intestinal Problems, Percent Change from Baseline, Q3 [1]: 40.00%
SHAQ Visual Analog Scale-Pain, Change from Baseline, Max [1]: −0.50
SHAQ Visual Analog Scale-Pain, Change from Baseline, Mean (SD) [1]: −1.100 (0.7937) and −1.1 (0.79)
SHAQ Visual Analog Scale-Pain, Change from Baseline, Median [1]: −0.800
SHAQ Visual Analog Scale-Pain, Change from Baseline, Min [1]: −2.00
SHAQ Visual Analog Scale-Pain, Change from Baseline, Q1 [1]: −2.000
SHAQ Visual Analog Scale-Pain, Change from Baseline, Q3 [1]: −0.500
SHAQ Visual Analog Scale-Pain, In Clinic Visit (Day 12), Max [1]: 2.10
SHAQ Visual Analog Scale-Pain, In Clinic Visit (Day 12), Mean (SD) [1]: 1.067 (0.9074)
SHAQ Visual Analog Scale-Pain, In Clinic Visit (Day 12), Median [1]: 0.700
SHAQ Visual Analog Scale-Pain, In Clinic Visit (Day 12), Min [1]: 0.40
SHAQ Visual Analog Scale-Pain, In Clinic Visit (Day 12), Q1 [1]: 0.400
SHAQ Visual Analog Scale-Pain, In Clinic Visit (Day 12), Q3 [1]: 2.100
SHAQ Visual Analog Scale-Pain, Percent Change from Baseline, Max [1]: −48.8%
SHAQ Visual Analog Scale-Pain, Percent Change from Baseline, Mean (SD) [1]: −52.56 (3.454) %
SHAQ Visual Analog Scale-Pain, Percent Change from Baseline, Median [1]: −53.33%
SHAQ Visual Analog Scale-Pain, Percent Change from Baseline, Min [1]: −55.6%
SHAQ Visual Analog Scale-Pain, Percent Change from Baseline, Q1 [1]: −55.56%
SHAQ Visual Analog Scale-Pain, Percent Change from Baseline, Q3 [1]: −48.78%
SHAQ Visual Analog Scale-Raynaud's, Change from Baseline, Max [1]: −0.30
SHAQ Visual Analog Scale-Raynaud's, Change from Baseline, Median [1]: −1.100
SHAQ Visual Analog Scale-Raynaud's, Change from Baseline, Min [1]: −2.40
SHAQ Visual Analog Scale-Raynaud's, Change from Baseline, Q1 [1]: −2.400
SHAQ Visual Analog Scale-Raynaud's, Change from Baseline, Q3 [1]: −0.300
SHAQ Visual Analog Scale-Raynaud's, In Clinic Visit (Day 12), Max [1]: 1.40
SHAQ Visual Analog Scale-Raynaud's, In Clinic Visit (Day 12), Mean (SD) [1]: 1.033 (0.4041)
SHAQ Visual Analog Scale-Raynaud's, In Clinic Visit (Day 12), Median [1]: 1.100
SHAQ Visual Analog Scale-Raynaud's, In Clinic Visit (Day 12), Min [1]: 0.60
SHAQ Visual Analog Scale-Raynaud's, In Clinic Visit (Day 12), Q1 [1]: 0.600
SHAQ Visual Analog Scale-Raynaud's, In Clinic Visit (Day 12), Q3 [1]: 1.400
SHAQ Visual Analog Scale-Raynaud's, Percent Change from Baseline, Max [1]: −33.3%
SHAQ Visual Analog Scale-Raynaud's, Percent Change from Baseline, Mean (SD) [1]: −48.63 (18.070) %
SHAQ Visual Analog Scale-Raynaud's, Percent Change from Baseline, Median [1]: −44.00%
SHAQ Visual Analog Scale-Raynaud's, Percent Change from Baseline, Min [1]: −68.6%
SHAQ Visual Analog Scale-Raynaud's, Percent Change from Baseline, Q1 [1]: −68.57%
SHAQ Visual Analog Scale-Raynaud's, Percent Change from Baseline, Q3 [1]: −33.33%
SHAQ alternative disability index, Change from Baseline, Max [1]: 0.00
SHAQ alternative disability index, Change from Baseline, Mean (SD) [1]: −0.083 (0.0722)
SHAQ alternative disability index, Change from Baseline, Median [1]: −0.125
SHAQ alternative disability index, Change from Baseline, Min [1]: −0.13
SHAQ alternative disability index, Change from Baseline, Q1 [1]: −0.125
SHAQ alternative disability index, Change from Baseline, Q3 [1]: 0.000
SHAQ alternative disability index, In Clinic Visit (Day 12), Max [1]: 0.25
SHAQ alternative disability index, In Clinic Visit (Day 12), Mean (SD) [1]: 0.125 (0.1250)
SHAQ alternative disability index, In Clinic Visit (Day 12), Median [1]: 0.125
SHAQ alternative disability index, In Clinic Visit (Day 12), Min [1]: 0.00
SHAQ alternative disability index, In Clinic Visit (Day 12), Q1 [1]: 0.000
SHAQ alternative disability index, In Clinic Visit (Day 12), Q3 [1]: 0.250
SHAQ alternative disability index, Percent Change from Baseline, Max [1]: −33.3%
SHAQ alternative disability index, Percent Change from Baseline, Mean (SD) [1]: −41.67 (11.785) %
SHAQ alternative disability index, Percent Change from Baseline, Median [1]: −41.67%
SHAQ alternative disability index, Percent Change from Baseline, Min [1]: −50.0%
SHAQ alternative disability index, Percent Change from Baseline, Q1 [1]: −50.00%
SHAQ alternative disability index, Percent Change from Baseline, Q3 [1]: −33.33%
mean decrease in patient reported disease severity on the SHAQ (pooled cilnidipine 10 mg or 20 mg (n=7)): 60%
